Experiments:
Assay in all cases: CTG-3D luminescence at 96 h relative to day-0 seeding control (ratio to day 0); higher = more growth / less cytotoxicity; PDxO 3D drug screen, 96 h, CTG-3D normalised to day-0 seeding control.
[1] = tested on: HCI-027 (organoid from a triple-negative breast cancer xenograft)
[2] = tested on: HCI-012 (organoid from a breast cancer xenograft)
[3] = tested on: HCI-024 (organoid from a breast cancer xenograft)

CC(C)(C(=O)NCC(F)(F)C(F)(F)F)C(=O)N[C@@H]1C(=O)Nc2ccccc2-c2ccccc21
CTG-3D luminescence at 96 h ([1]; 0.005 µM, days in culture: 201): 1.57
CTG-3D luminescence at 96 h ([1]; 0.1 µM, days in culture: 176): 0.289
CTG-3D luminescence at 96 h ([1]; 0.1 µM, days in culture: 194): 0.35
CTG-3D luminescence at 96 h ([1]; 0.1 µM, days in culture: 201): 0.358
CTG-3D luminescence at 96 h ([1]; 1 µM, days in culture: 176): 0.192
CTG-3D luminescence at 96 h ([1]; 1 µM, days in culture: 194): 0.281
CTG-3D luminescence at 96 h ([1]; 1 µM, days in culture: 201): 0.288
CTG-3D luminescence at 96 h ([1]; 10 µM, days in culture: 176): 0.176
CTG-3D luminescence at 96 h ([1]; 10 µM, days in culture: 194): 0.486
CTG-3D luminescence at 96 h ([1]; 10 µM, days in culture: 201): 0.407
CTG-3D luminescence at 96 h ([1]; 100 µM, days in culture: 176): 0.165
CTG-3D luminescence at 96 h ([1]; 100 µM, days in culture: 194): 0.484
CTG-3D luminescence at 96 h ([1]; 100 µM, days in culture: 201): 0.247
CTG-3D luminescence at 96 h ([1]; 625 fM, days in culture: 176): 1.96
CTG-3D luminescence at 96 h ([1]; 625 fM, days in culture: 194): 1.55
CTG-3D luminescence at 96 h ([1]; 625 fM, days in culture: 201): 1.99
CTG-3D luminescence at 96 h ([2]; 12.5 pM, days in culture: 143): 1.62
CTG-3D luminescence at 96 h ([2]; 12.5 pM, days in culture: 162): 2.77
CTG-3D luminescence at 96 h ([2]; 12.5 pM, days in culture: 201): 2.67
CTG-3D luminescence at 96 h ([2]; 0.00025 µM, days in culture: 143): 1.71
CTG-3D luminescence at 96 h ([2]; 0.00025 µM, days in culture: 162): 1.65
CTG-3D luminescence at 96 h ([2]; 0.00025 µM, days in culture: 201): 2.23
CTG-3D luminescence at 96 h ([2]; 0.005 µM, days in culture: 143): 1.71
CTG-3D luminescence at 96 h ([2]; 0.005 µM, days in culture: 162): 1.36
CTG-3D luminescence at 96 h ([2]; 0.005 µM, days in culture: 201): 1.91
CTG-3D luminescence at 96 h ([2]; 0.1 µM, days in culture: 143): 2.2
CTG-3D luminescence at 96 h ([2]; 0.1 µM, days in culture: 162): 2.46
CTG-3D luminescence at 96 h ([2]; 0.1 µM, days in culture: 201): 1.9
CTG-3D luminescence at 96 h ([2]; 1 µM, days in culture: 143): 2.22
CTG-3D luminescence at 96 h ([2]; 1 µM, days in culture: 162): 1.82
CTG-3D luminescence at 96 h ([2]; 1 µM, days in culture: 201): 2.48
CTG-3D luminescence at 96 h ([2]; 10 µM, days in culture: 143): 2.41
CTG-3D luminescence at 96 h ([2]; 10 µM, days in culture: 162): 2.59
CTG-3D luminescence at 96 h ([2]; 10 µM, days in culture: 201): 1.51
CTG-3D luminescence at 96 h ([2]; 100 µM, days in culture: 143): 1.37
CTG-3D luminescence at 96 h ([2]; 100 µM, days in culture: 162): 1.53
CTG-3D luminescence at 96 h ([2]; 100 µM, days in culture: 201): 2.23
CTG-3D luminescence at 96 h ([2]; 625 fM, days in culture: 143): 1.72
CTG-3D luminescence at 96 h ([2]; 625 fM, days in culture: 162): 3.16
CTG-3D luminescence at 96 h ([2]; 625 fM, days in culture: 201): 1.61
CTG-3D luminescence at 96 h ([3]; 12.5 pM, days in culture: 105): 1.79
CTG-3D luminescence at 96 h ([3]; 12.5 pM, days in culture: 122): 2.28
CTG-3D luminescence at 96 h ([3]; 12.5 pM, days in culture: 163): 2.14
CTG-3D luminescence at 96 h ([3]; 0.00025 µM, days in culture: 105): 1.33
CTG-3D luminescence at 96 h ([3]; 0.00025 µM, days in culture: 122): 1.94
CTG-3D luminescence at 96 h ([3]; 0.00025 µM, days in culture: 163): 2.11
CTG-3D luminescence at 96 h ([3]; 0.005 µM, days in culture: 105): 0.962
CTG-3D luminescence at 96 h ([3]; 0.005 µM, days in culture: 122): 1.8
CTG-3D luminescence at 96 h ([3]; 0.005 µM, days in culture: 163): 1.38
CTG-3D luminescence at 96 h ([3]; 0.1 µM, days in culture: 105): 1.85
CTG-3D luminescence at 96 h ([3]; 0.1 µM, days in culture: 122): 1.67
CTG-3D luminescence at 96 h ([3]; 0.1 µM, days in culture: 163): 2.27
CTG-3D luminescence at 96 h ([3]; 1 µM, days in culture: 105): 1.67
CTG-3D luminescence at 96 h ([3]; 1 µM, days in culture: 122): 1.64
CTG-3D luminescence at 96 h ([3]; 1 µM, days in culture: 163): 2.12
CTG-3D luminescence at 96 h ([3]; 10 µM, days in culture: 105): 2.09
CTG-3D luminescence at 96 h ([3]; 10 µM, days in culture: 122): 2.55
CTG-3D luminescence at 96 h ([3]; 10 µM, days in culture: 163): 2.52
CTG-3D luminescence at 96 h ([3]; 100 µM, days in culture: 105): 1.22
CTG-3D luminescence at 96 h ([3]; 100 µM, days in culture: 122): 1.21
CTG-3D luminescence at 96 h ([3]; 100 µM, days in culture: 163): 1.71
CTG-3D luminescence at 96 h ([3]; 625 fM, days in culture: 105): 1.91
CTG-3D luminescence at 96 h ([3]; 625 fM, days in culture: 122): 3.41
CTG-3D luminescence at 96 h ([3]; 625 fM, days in culture: 163): 2.36
